Experimental data reported in patent US20180344671A1, “Cysteamine as Neutrophil Elastase Inhibitor” (Novabiotics Limited, priority 2017, published 2018).

Columns and labels:
[1] = target: T1, human neutrophil elastase (Homo sapiens, UniProt P08246); experiment: SDS PAGE of recombinant human neutrophil elastase treated with cysteamine and derivatives; details: FIG. 3; 2.5 μg NE with 2.5 or 5 μg compound, 1 h at 37° C., 8-16% Tris-Glycine SDS gel
T1 sequence (P08246 30-267): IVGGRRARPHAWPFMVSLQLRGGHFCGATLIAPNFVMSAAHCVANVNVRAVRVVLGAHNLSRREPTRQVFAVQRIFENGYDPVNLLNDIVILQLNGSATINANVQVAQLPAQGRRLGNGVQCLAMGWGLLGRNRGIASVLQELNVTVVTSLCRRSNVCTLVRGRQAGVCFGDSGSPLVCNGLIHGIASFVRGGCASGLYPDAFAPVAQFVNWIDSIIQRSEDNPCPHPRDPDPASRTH
Description: FIG. 3: The banding pattern and relative staining intensity of recombinant human neutrophil elastase is altered by the addition of cysteamine bitartrate and cysteamine free base. […] This 8-16% gradient Tri-Glycine SDS gel is loaded with a molecular weight marker and: 1. Recombinant human neutrophil elastase [2.5 μg total]; 2. Recombinant human neutrophil elastase [2.5 μg total] and cysteamine bitartrate [2.5 μg total]; 3. Recombinant human neutrophil elastase [2.5 μg total] and cysteamine bitartrate [5 μg total]; 4. Recombinant human neutrophil elastase [2.5 μg total] and cysteamine free base [2.5 μg total]; 5. Recombinant human neutrophil elastase [2.5 μg total] and cysteamine free base [5 μg total]; 6. Recombinant human neutrophil elastase [2.5 μg total] and cystamine dihydrochloride [2.5 μg total]; 7. Recombinant human neutrophil elastase [2.5 μg total] and cystamine dihydrochloride [5 μg total].
Recombinant proteins were treated with or without cysteamine and its derivatives at the concentrations stated in the figures below for 1 h at 37° C. prior to addition of 2× sample buffer and electrophoretic separation on pre-cast 8-16% tris-glycine SDS polyacrylamide gradient gel (Life Technologies) under a constant voltage of 120V in tris-glycine running buffer until the dye front reached the end of the gel. Samples were not heated prior to loading to minimize denaturation of disulphide bonds on the denaturing gel. Precision Plus (Bio-Rad) prestained protein standards were used alongside samples. After electrophoresis gels were carefully removed from the plastic cassettes and washed in sterile distilled water to remove SDS 3× for 5 min. Protein bands were visualized using coomassie-based Simply Blue™ Safe Stain (Life Technologies) staining for 1 h at room temperature. The gel was washed overnight in sterile distilled water, and for a further hour in fresh water prior to photographing.

[2] = target: T1, human neutrophil elastase; experiment: Neutrophil Elastase Inhibitor Screening Kit (Sigma MAK213), fluorometric; format: biochemical; parameters: purchased Sigma-Aldrich MAK213; details: for effect on human neutrophil elastase activity measured fluorometrically: FIG. 2, result in words; for Relative inhibition of NE activity (%): 30 min, 37° C.
Description: Neutrophil Elastase Inhibitor Screening Kit is available from Sigma-Aldrich, catalogue number MAK213. This kit measures neutrophil elastase activity by detecting the hydrolysis and release of a fluorescent product. It allows for the screening of unknown substances for inhibitory activity and compares with a positive inhibitor control. Cysteamine free base, cysteamine bitartrate, and cystamine dihydrochloride were prepared in the assay buffer provided at four times the final testing concentration and combined with enzyme and substrate as appropriate and as defined in the full protocol. Samples were prepared in 96 well microtiter plates with black well walls. Background fluorescence can be determined by omitting the neutrophil elastase from a sample blank control. Fluorescence was measured at 400ex/505em nm on a Biotek Synergy plate reader over 30 min at an incubation temperature of 37° C. Relative inhibition is determined by the following equations: Slope=(Fluorescence 2−Fluorescence 1)/(Time 2−Time 1)=delta fluorescence/minute % Relative Inhibition=((SlopeEC−SlopeSM)/SlopeEC))×100 Where: SlopeSM=the slope of the sample inhibitor (cysteamine and derivatives) & SlopeEC=the slope of the Enzyme control.

Row | Structure (SMILES) | banding pattern and relative staining intensity of recombinant human neutrophil elastase [1] | effect on human neutrophil elastase activity measured fluorometrically [2] | Relative inhibition of NE activity (%) ([2]; Cysteamine bitartrate concentration 20 μg/ml) | Relative inhibition of NE activity (%) ([2]; Cysteamine bitartrate concentration 200 μg/ml) | Relative inhibition of NE activity (%) ([2]; Cysteamine bitartrate concentration 2000 μg/ml)
1 | Cl.Cl.NCCSSCCN [Cystamine dihydrochloride, cystamine dihydrochloride] | less of an effect | minimal effect |  |  | 
2 | NCCS.O=C(O)C(O)C(O)C(=O)O (stereo not drawn) [Cysteamine bitartrate, cysteamine bitartrate] | altered | effected human neutrophil elastase activity | 12.526% | 30.689% | 86.639%
3 | NCCS [cysteamine free base, NH2—CH2—CH2—SH] | altered | effected human neutrophil elastase activity |  |  | 
